From ChEMBL document CHEMBL1153994 come the findings set out here.

The test system of assay [1] is HEK293. Kind of assay: Selectivity for PLD1 in human Calu1 cells over GFP-labeled PLD2 in human HEK293 cells. It counts as cell-based.
Assay [2] deals with T1, Phospholipase D1 (Homo sapiens, UniProt Q13393).
T1 sequence (Q13393 whole entry): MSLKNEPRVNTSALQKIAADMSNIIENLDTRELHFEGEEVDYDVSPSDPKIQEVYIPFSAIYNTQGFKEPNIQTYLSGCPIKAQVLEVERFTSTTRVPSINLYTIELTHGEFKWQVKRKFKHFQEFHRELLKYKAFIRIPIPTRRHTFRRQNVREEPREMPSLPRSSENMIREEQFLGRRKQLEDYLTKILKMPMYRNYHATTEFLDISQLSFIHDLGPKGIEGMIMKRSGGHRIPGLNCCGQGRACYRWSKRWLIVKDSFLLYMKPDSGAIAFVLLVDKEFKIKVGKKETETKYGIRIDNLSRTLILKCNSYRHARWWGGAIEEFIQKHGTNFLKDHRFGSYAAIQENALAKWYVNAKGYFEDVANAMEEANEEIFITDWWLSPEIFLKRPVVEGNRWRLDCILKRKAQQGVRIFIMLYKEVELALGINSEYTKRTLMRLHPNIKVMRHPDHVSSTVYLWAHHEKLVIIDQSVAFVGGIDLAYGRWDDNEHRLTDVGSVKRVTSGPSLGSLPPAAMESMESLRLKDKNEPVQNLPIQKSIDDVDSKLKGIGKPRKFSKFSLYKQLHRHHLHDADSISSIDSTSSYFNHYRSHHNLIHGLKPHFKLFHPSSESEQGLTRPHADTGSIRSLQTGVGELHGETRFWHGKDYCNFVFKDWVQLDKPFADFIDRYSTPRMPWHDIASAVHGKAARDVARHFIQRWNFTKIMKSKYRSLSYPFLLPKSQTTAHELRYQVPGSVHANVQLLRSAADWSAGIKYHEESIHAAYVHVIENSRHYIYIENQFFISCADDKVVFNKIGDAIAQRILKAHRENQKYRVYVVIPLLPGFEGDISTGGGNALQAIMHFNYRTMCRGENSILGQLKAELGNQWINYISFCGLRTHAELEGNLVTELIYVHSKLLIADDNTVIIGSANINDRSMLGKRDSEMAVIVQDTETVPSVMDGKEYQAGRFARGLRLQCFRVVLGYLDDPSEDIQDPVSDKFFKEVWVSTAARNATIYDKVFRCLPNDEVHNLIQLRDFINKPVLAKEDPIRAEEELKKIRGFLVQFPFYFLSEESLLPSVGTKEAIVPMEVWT
Nature of the assay: Inhibition of PLD1 in human Calu1 cells. Format: cell-based, Calu-1.

The target of assay [3] is Phospholipase D2 (Homo sapiens, UniProt O14939). Nature of the assay: Inhibition of GFP-labeled PLD2 in human HEK293 cells. Format: cell-based.

Each structure is given as a SMILES string. Where only a bound is given, the exact number is not on record here.

Phospholipase D2, sequence (O14939 whole entry): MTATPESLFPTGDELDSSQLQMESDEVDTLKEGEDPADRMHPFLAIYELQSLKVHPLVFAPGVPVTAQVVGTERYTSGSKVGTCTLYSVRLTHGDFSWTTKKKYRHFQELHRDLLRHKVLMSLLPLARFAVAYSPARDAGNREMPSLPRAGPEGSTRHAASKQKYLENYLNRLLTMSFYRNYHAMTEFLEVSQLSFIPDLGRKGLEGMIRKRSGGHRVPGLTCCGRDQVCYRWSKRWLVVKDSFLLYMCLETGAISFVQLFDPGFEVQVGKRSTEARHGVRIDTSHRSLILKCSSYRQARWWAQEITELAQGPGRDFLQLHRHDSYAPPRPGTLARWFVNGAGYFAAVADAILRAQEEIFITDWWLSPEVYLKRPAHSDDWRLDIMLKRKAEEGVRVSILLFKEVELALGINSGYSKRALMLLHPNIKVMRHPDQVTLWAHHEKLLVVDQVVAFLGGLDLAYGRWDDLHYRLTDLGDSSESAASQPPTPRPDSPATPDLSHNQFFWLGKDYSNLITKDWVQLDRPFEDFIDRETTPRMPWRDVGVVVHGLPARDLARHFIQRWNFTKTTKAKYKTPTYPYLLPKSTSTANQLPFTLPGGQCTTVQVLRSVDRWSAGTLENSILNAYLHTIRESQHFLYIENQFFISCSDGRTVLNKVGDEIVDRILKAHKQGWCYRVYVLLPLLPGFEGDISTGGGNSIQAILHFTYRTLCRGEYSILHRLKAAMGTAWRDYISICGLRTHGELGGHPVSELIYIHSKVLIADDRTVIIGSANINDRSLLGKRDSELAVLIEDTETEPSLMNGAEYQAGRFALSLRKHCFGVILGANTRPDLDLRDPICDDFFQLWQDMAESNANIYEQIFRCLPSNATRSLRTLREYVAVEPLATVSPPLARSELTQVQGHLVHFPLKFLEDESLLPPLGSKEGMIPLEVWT

The compound `O=C(NCCN1CCC2(CC1)C(=O)NCN2c1ccccc1)c1ccc2ccccc2c1` came in with a fold change (FC) in assay [1] of 9.

Take `O=C(NCCN1CCC(n2c(=O)[nH]c3ccccc32)CC1)c1ccc2ccccc2c1`: the fold change (FC) in assay [1] is above 1700.

With `O=C(NCCN1CCC2(CC1)C(=O)NCN2c1ccccc1)c1cc2ccccc2s1`, the IC50 (commonly the point on the concentration scale where inhibition reaches its midpoint) in assay [2] came to 150 nM; in assay [3], 30 nM.

Consider `COc1cc(C(=O)NCCN2CCC3(CC2)C(=O)NCN3c2ccccc2)ccc1N`, for which the IC50 stood at 5900 nM in assay [2] and 550 nM in assay [3].

Consider `O=C(NCCN1CCC2(CC1)C(=O)NCN2c1ccccc1)[C@H]1C[C@@H]1c1ccccc1` (relative stereo), for which the IC50 in assay [2] and in assay [3] was above 20000 nM throughout.

On to `O=C(NCCN1CCC2(CC1)C(=O)NCN2c1ccccc1)c1cnc2ccccc2n1`, for which the IC50 in assay [2] and in assay [3] was above 20000 nM in each case.

Turning to `O=C(C#Cc1ccccc1)NCCN1CCC2(CC1)C(=O)NCN2c1ccccc1`, the IC50 amounted to 2100 nM in assay [2] and 1600 nM in assay [3].

Consider `Cc1cccc(C(=O)N[C@@H](C)CN2CCC3(CC2)C(=O)NCN3c2ccccc2)c1`, for which the IC50 turned out to be 3400 nM in assay [2] and 27000 nM in assay [3].

As to `C[C@@H](CN1CCC2(CC1)C(=O)NCN2c1ccccc1)NC(=O)c1ccc(F)c(F)c1`, the figures for the IC50 in assay [2] and in assay [3] were 150 nM and 200 nM, respectively.

Regarding `C[C@@H](CN1CCC2(CC1)C(=O)NCN2c1ccccc1)NC(=O)[C@H]1C[C@@H]1c1ccccc1`, the IC50 in assay [2] was 2600 nM; in assay [3], 30000 nM.
